PMC8936055 (Journal of natural products, 2022)
Read-outs that look alike come from different tables or passages of the source.

Assays:
SARS-CoV-2 [1] = format: cell-based; conditions: Calu-3 cells; for Suppression of viral infection relative to DMSO control, initial screen: 0.5 μM for 1, 1 μM for the others, 48 h, Figure 3; for Suppression of viral infection, follow-up experiment: Figure 4
[2] = test system: primary human airway cells; conditions: air-liquid interface, 48 h, Figure 5B
SARS-CoV-2 [3] = conditions: air-liquid interface culture, test concentration 10 μM, 48 h
HIV-1 strain 96USHIPS7 = conditions: read-out: IC50 against HIV-1 strain 96USHIPS7; cited from earlier work
HIV-1 strain UG/92/029 = conditions: read-out: IC50 against HIV-1 strain UG/92/029; cited from earlier work
Plasmodium falciparum = conditions: human malarial parasite Plasmodium falciparum; cited from earlier work
[4] = cited from earlier work
[5] = test system: influenza A virus subtype H1N1; conditions: cited from earlier work
SARS-CoV-2 [6] = conditions: cited from earlier work

In the case of `CC(=O)C[C@]1(O)c2ccccc2-[n+]2ccc3c([nH]c4ccccc43)c21.O=C([O-])C(F)(F)F` [Compound 1, homofascaplysin A], the “Suppression of viral infection relative to DMSO control, initial screen” value (SARS-CoV-2 [1]) is reported as “significantly suppressed viral infection”, the “Suppression of viral infection, follow-up experiment” value (from here on “Suppression … follow-up experiment”) (SARS-CoV-2 [1]; 2.8 μM) is reported as “significant suppression of viral infection” and the “Effect on adenoviral transduction (toxicity control)” value [2] is reported as “did not affect adenoviral transduction”.
In the case of `C[C@H]1CC[C@H]2C(C)(C)CCC[C@]23Oc2ccc(O)cc2C[C@]13C` [Compound 2, (+)-aureol], the “Suppression of viral infection relative to DMSO control, initial screen” value (SARS-CoV-2 [1]) is reported as “significantly suppressed viral infection”, the “Suppression … follow-up experiment” value (SARS-CoV-2 [1]; 10 μM) is reported as “significant suppression of viral infection” and the “Effect on SARS-CoV-2 replication in primary human airway cells” value (SARS-CoV-2 [3]) is reported as “ineffective”.
For `CC1=C2Cc3cc(ccc3O)C(=O)O[C@H](C(C)(C)Br)CC[C@](C)(O)[C@H](Br)CC[C@]2(C)[C@@H](Br)CC1` [Compound 3, bromophycolide A], the “Suppression of viral infection relative to DMSO control, initial screen” value (SARS-CoV-2 [1]) is listed as “significantly suppressed viral infection”, the “Suppression … follow-up experiment” value (SARS-CoV-2 [1]; 10 μM) is listed as “significant suppression of viral infection” and the IC50 (HIV-1 strain 96USHIPS7) is listed as 9.8 µM. For the same molecule, the IC50 (HIV-1 strain UG/92/029) was 9.1 µM, the “Blood stage antimalarial activity” value (Plasmodium falciparum) was “sub-micromolar” and the Toxicity in vivo ([4]; malaria mouse model) was “low toxicity”. For the same molecule, the Bioavailability in vivo ([4]; mouse, in vivo) was “reasonable bioavailability”, the In vivo half-life ([4]; mouse, in vivo) was “short in vivo half-life” and the Liver metabolism ([4]; mouse, in vivo) was “rapid liver metabolism”. The “Effect on SARS-CoV-2 replication in primary human airway cells” value (SARS-CoV-2 [3]) was “ineffective”.
With `CC(C)=CCC[C@@H](C)[C@H]1CC[C@@]2(C(=O)O)C3=C(CC[C@]12C)[C@@]1(C)CC[C@H](O[C@@H]2OC[C@H](O)[C@H](O[C@@H]4OC[C@H](O)[C@H](O[C@@H]5O[C@H](CO)[C@H](O)[C@H](O)[C@H]5O)[C@H]4O)[C@H]2O[C@@H]2O[C@H](CO)[C@H](O)[C@H](O)[C@H]2O)C(C)(C)C1CC3` (stereo partly shown) [Compound 13, formoside] the “Reduction of SARS-CoV-2 infection in a subsequent experiment” value (SARS-CoV-2 [1]; data not shown) was “not replicated”.
In the case of `C[C@H]1CC[C@H]2C(C)(C)[C@@H](O)CC[C@]23Oc2c(c(O)cc4c2CNC4=O)C[C@]13C` [Compound 16, stachyflin], the “Activity against influenza A virus subtype H1N1” value [5] is given as “nanomolar activity”.
In the case of plitidepsin [Compound 4], the “Potency against SARS-CoV-2 relative to remdesivir” value (SARS-CoV-2 [6]) is given as “more than 20 times”.
